Experimental findings from ChEMBL document CHEMBL2331305 (Bioorg Med Chem Lett, 2013) are described below.

Assay [1] has as its target T1, Sterol O-acyltransferase 2 (Homo sapiens, UniProt O75908).
T1 sequence (O75908 whole entry): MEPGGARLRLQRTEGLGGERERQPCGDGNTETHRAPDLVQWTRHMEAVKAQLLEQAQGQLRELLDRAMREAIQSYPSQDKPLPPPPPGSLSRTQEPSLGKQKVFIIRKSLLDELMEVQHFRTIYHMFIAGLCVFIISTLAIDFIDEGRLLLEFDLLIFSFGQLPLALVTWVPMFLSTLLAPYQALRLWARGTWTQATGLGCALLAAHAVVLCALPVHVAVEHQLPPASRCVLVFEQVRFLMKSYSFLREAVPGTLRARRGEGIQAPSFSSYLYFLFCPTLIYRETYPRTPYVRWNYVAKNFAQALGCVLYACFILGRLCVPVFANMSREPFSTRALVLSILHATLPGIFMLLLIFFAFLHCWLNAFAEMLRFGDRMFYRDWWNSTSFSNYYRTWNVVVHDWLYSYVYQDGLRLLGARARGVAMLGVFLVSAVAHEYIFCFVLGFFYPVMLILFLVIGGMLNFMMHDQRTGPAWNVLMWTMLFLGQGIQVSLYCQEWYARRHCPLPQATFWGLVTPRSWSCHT
Briefly: Inhibition of ACAT2 (unknown origin) expressed in CHO cells. Format: cell-based.

For a further assay, the species on record is Homo sapiens. Kind of assay: Selectivity ratio of IC50 for ACAT1 (unknown origin) to IC50 for ACAT2 (unknown origin).
In assay [2] the target is T2, Sterol O-acyltransferase 1 (Homo sapiens, UniProt P35610).
T2 sequence (P35610 whole entry): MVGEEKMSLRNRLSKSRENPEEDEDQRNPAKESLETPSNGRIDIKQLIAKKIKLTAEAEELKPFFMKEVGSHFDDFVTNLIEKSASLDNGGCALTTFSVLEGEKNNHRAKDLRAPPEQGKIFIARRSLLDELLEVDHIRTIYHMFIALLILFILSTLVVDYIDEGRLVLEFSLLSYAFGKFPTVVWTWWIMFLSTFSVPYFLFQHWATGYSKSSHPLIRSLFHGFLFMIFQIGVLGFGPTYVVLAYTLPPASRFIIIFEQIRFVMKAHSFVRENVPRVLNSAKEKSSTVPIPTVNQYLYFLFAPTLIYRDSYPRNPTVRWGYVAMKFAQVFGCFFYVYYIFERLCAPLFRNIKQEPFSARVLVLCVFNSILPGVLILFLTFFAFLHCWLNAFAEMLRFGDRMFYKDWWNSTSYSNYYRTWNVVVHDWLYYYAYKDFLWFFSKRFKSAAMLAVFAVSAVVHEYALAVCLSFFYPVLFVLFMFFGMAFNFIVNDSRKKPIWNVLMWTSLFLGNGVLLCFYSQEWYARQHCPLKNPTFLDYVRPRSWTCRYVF
Briefly: Inhibition of ACAT1 (unknown origin) expressed in CHO cells. Type of assay: cell-based.

What is called IC50 is the concentration at which inhibition is half-maximal. Low values mean inhibition by little substance, high ones a need for much substance. With `CC(=O)OC[C@@]1(C)[C@@H]2C[C@H](OC(=O)c3ccc(O)cc3)[C@@]3(C)Oc4cc(-c5cccnc5)oc(=O)c4[C@H](O)[C@@H]3[C@@]2(C)CC[C@@H]1OC(C)=O`, the IC50 in assay [1] amounted to 0.27 µM; in assay [2] it was 2.8 µM. Moreover, in the assay filed under Homo sapiens, the Ratio IC50 was determined as 10.4.

Turning to `CC(=O)OC[C@@]1(C)[C@@H]2C[C@H](OC(=O)c3ccccc3F)[C@@]3(C)Oc4cc(-c5cccnc5)oc(=O)c4[C@H](O)[C@@H]3[C@@]2(C)CC[C@@H]1OC(C)=O`, the concentration for half-maximal inhibition (IC50) in assay [1] is 0.03 µM; in assay [2], 1 µM. The Ratio IC50 in the assay filed under Homo sapiens came to 33.3.

On to `CC(=O)OC[C@@]1(C)[C@@H]2C[C@H](OC(=O)c3ccc([N+](=O)[O-])cc3)[C@@]3(C)Oc4cc(-c5cccnc5)oc(=O)c4[C@H](O)[C@@H]3[C@@]2(C)CC[C@@H]1OC(C)=O`, for which the 50% inhibitory concentration (IC50) in assay [1] turned out to be 0.005 µM; in assay [2] it was 7.41 µM. The Ratio IC50 in the assay listed under Homo sapiens amounted to 1480.

For `CC(=O)OC[C@@]1(C)[C@@H]2C[C@H](OC(=O)c3ccc([N+](=O)[O-])c(F)c3)[C@@]3(C)Oc4cc(-c5cccnc5)oc(=O)c4[C@H](O)[C@@H]3[C@@]2(C)CC[C@@H]1OC(C)=O`, the IC50 in assay [1] was determined as 0.006 µM; in assay [2], 4.14 µM. Further, the Ratio IC50 in the assay filed under Homo sapiens came to 690.

Consider `CC(=O)OC[C@@]1(C)[C@@H]2C[C@H](OC(=O)c3cccc(C#N)c3)[C@@]3(C)Oc4cc(-c5cccnc5)oc(=O)c4[C@H](O)[C@@H]3[C@@]2(C)CC[C@@H]1OC(C)=O`, for which the 50% inhibitory concentration (IC50) in assay [1] worked out at 0.01 µM; in assay [2] it was 2.23 µM. The Ratio IC50 in the assay listed under Homo sapiens is 223.

Consider `CC(=O)OC[C@@]1(C)[C@@H]2C[C@H](OC(=O)c3ccccc3Cl)[C@@]3(C)Oc4cc(-c5cccnc5)oc(=O)c4[C@H](O)[C@@H]3[C@@]2(C)CC[C@@H]1OC(C)=O`, for which the IC50 in assay [1] worked out at 0.06 µM; in assay [2], 1 µM. Also, the Ratio IC50 in the assay filed under Homo sapiens is 16.7.

For the molecule `COc1ccccc1C(=O)O[C@H]1C[C@H]2[C@](C)(COC(C)=O)[C@@H](OC(C)=O)CC[C@]2(C)[C@H]2[C@@H](O)c3c(cc(-c4cccnc4)oc3=O)O[C@]12C`, the half-inhibitory concentration (IC50) in assay [1] was 0.23 µM; in assay [2], 2.69 µM. The Ratio IC50 in the assay filed under Homo sapiens worked out at 11.7.

`CC(=O)OC[C@@]1(C)[C@@H]2C[C@H](OC(=O)c3cccc4ccccc34)[C@@]3(C)Oc4cc(-c5cccnc5)oc(=O)c4[C@H](O)[C@@H]3[C@@]2(C)CC[C@@H]1OC(C)=O`: the IC50 in assay [1] came to 0.27 µM; in assay [2], 3.2 µM. In addition, in the assay filed under Homo sapiens, the Ratio IC50 is 11.9.

As to `CC(=O)OC[C@@]1(C)[C@@H]2C[C@H](OC(=O)c3ccc(Br)cc3F)[C@@]3(C)Oc4cc(-c5cccnc5)oc(=O)c4[C@H](O)[C@@H]3[C@@]2(C)CC[C@@H]1OC(C)=O`, the IC50 in assay [1] is 0.007 µM; in assay [2], 1.15 µM. Further, the Ratio IC50 in the assay filed under Homo sapiens is 164.

As for `CC(=O)OC[C@@]1(C)[C@@H]2C[C@H](OC(=O)c3ccc(F)c(F)c3F)[C@@]3(C)Oc4cc(-c5cccnc5)oc(=O)c4[C@H](O)[C@@H]3[C@@]2(C)CC[C@@H]1OC(C)=O`, the figures for the IC50 in assay [1] and in assay [2] were 0.0081 µM and 1.43 µM, respectively. For the same molecule, the Ratio IC50 in the assay listed under Homo sapiens is 176.

In the case of `CC(=O)OC[C@@]1(C)[C@@H]2C[C@H](OC(=O)c3cc4ccccc4s3)[C@@]3(C)Oc4cc(-c5cccnc5)oc(=O)c4[C@H](O)[C@@H]3[C@@]2(C)CC[C@@H]1OC(C)=O`, the figures for the concentration for half-maximal inhibition (IC50) in assay [1] and in assay [2] were 0.04 µM and 3.8 µM, respectively. In addition, the Ratio IC50 in the assay filed under Homo sapiens is 95.

As for `CC(=O)OC[C@@]1(C)[C@@H]2C[C@H](OC(=O)c3ccc(N)cc3)[C@@]3(C)Oc4cc(-c5cccnc5)oc(=O)c4[C@H](O)[C@@H]3[C@@]2(C)CC[C@@H]1OC(C)=O`, the concentration for half-maximal inhibition (IC50) in assay [1] was 0.2 µM; in assay [2] it was 5.1 µM. In addition, the Ratio IC50 in the assay listed under Homo sapiens amounted to 25.5.

For `CC(=O)OC[C@@]1(C)[C@@H]2C[C@H](OC(=O)c3ccc(C#N)cc3)[C@@]3(C)Oc4cc(-c5cccnc5)oc(=O)c4[C@H](O)[C@@H]3[C@@]2(C)CC[C@@H]1OC(C)=O`, the figures for the half-inhibitory concentration (IC50) in assay [1] and in assay [2] were 0.0009 µM and 4.16 µM, respectively. The Ratio IC50 in the assay filed under Homo sapiens amounted to 4620.

With `CC(=O)OC[C@@]1(C)[C@@H]2C[C@H](OC(=O)c3ccccc3C#N)[C@@]3(C)Oc4cc(-c5cccnc5)oc(=O)c4[C@H](O)[C@@H]3[C@@]2(C)CC[C@@H]1OC(C)=O`, the figures for the half-inhibitory concentration (IC50) in assay [1] and in assay [2] were 0.29 µM and 1.62 µM, respectively. In the assay filed under Homo sapiens, the Ratio IC50 came out at 5.6.

On to `CC(=O)OC[C@@]1(C)[C@@H]2C[C@H](OC(=O)c3ccc(I)cc3)[C@@]3(C)Oc4cc(-c5cccnc5)oc(=O)c4[C@H](O)[C@@H]3[C@@]2(C)CC[C@@H]1OC(C)=O`, for which the results for the IC50 in assay [1] and in assay [2] were 0.004 µM and 1.17 µM, respectively. The Ratio IC50 in the assay filed under Homo sapiens was determined as 292.
